Entries after “also recorded” stand apart in the source; their conditions may differ.
Experiments:
soluble P14 TCR (mouse) [1] = assay: ITC
soluble P14 TCR (mouse) [2] = assay: SPR
P14 T cells [3] = assay type: cell-based, mouse
P14 T cells [4] = assay type: cell-based, mouse; remark: listed apart in the source
H-2D^b (pMHC complex) = assay type: binding, mouse
soluble TCR P14 [5] = assay type: binding, mouse
soluble TCR P14 [6] = assay type: binding, mouse; remark: listed apart in the source
P14 T cells [7] = assay type: cell-based, mouse; remark: listed apart in the source
P14 T cells [8] = assay type: cell-based, mouse; remark: listed apart in the source
P14 T cells [9] = assay type: cell-based, mouse; remark: listed apart in the source
TCR P14 = conditions: cited from earlier work
T cell clone YF.F3 = conditions: cited from earlier work

Substance | TNF and IFNγ production by LCMV-activated P14 T cells (in words) (P14 T cells [4]) | pMHC complex thermal stability (in words) (H-2D^b (pMHC complex)) | Tm (50% protein denaturation), in Fig 1A (H-2D^b (pMHC complex); pH 7.5) | thermodynamics of P14 binding (in words) (soluble TCR P14 [6]) | P14 TCR down-regulation / internalization (in words) (P14 T cells [7]) | TNF and IFNγ production by P14 T cells (in words) (P14 T cells [8]) | CD107a expression (degranulation) of P14 T cells (in words) (P14 T cells [9]) | also measured
H-2D^b/gp33 (from UniProt P01887 21-119) (peptide-MHC) |  |  |  |  |  |  |  | Kd (soluble P14 TCR (mouse) [1]): 5.8 µM; dH (soluble P14 TCR (mouse) [1]): -42.7 kJ/mol; Kd (soluble P14 TCR (mouse) [2]): 8.6 µM
KAPFNFATM [Peptide V3P_Y4F] | produced TNF and IFNγ |  |  |  |  |  |  | tetramer recognition by LCMV-activated P14 T cells (in words) (P14 T cells [3]): a significant amount of the activated P14 T cells recognized the H-2D^b/V3P_Y4F complex
KAPYNFATM [Peptide V3P] |  | consistent increase in pMHC complex thermal stability | 57.3 °C | mainly enthalpy-driven with almost null contribution of entropy; also recorded: the energy required for P14 recognition of V3P is reduced compared to gp33; also recorded: reduced unfavorable entropic contribution | equaled or increased TCR internalization compared to gp33 | induced significant production of TNF and IFNγ | induced significant production of TNF and IFNγ, as well as CD107a expression | Tm (temperature with 50% pMHC denaturation) (H-2D^b (pMHC complex); pH 7.5): 57.3±0.4 C; P14 TCR binding to pMHC (in words) (soluble TCR P14 [5]): significantly higher binding affinity of soluble P14 TCR to H-2D^b/V3P compared to H-2D^b/gp33; TΔS (soluble TCR P14 [6]; pH 7.4): -2.1 ± 1.3 kJ/mol; ΔH (soluble TCR P14 [6]; pH 7.4): -35.6 ± 2.1 kJ/mol
KAVANFATM [Peptide Y4A] |  |  |  |  |  |  |  | agonist class (in words) (TCR P14): semi-agonist
KAVYNFATM [gp33, reference compound] | produced TNF and IFNγ | equivalent thermal stability | 53.7 °C | entropically unfavorable | induced significant TCR down-regulation | induced significant production of TNF and IFNγ | induced significant production of TNF and IFNγ, as well as CD107a expression | IFNγ production by clone YF.F3 (in words) (T cell clone YF.F3): did not produce high amounts IFNγ against gp33; killing of peptide-presenting targets by clone YF.F3 (in words) (T cell clone YF.F3): killed efficiently targets presenting gp33

— paper PMC7224568 (PLoS Pathogens, 2020)
